Laboratory results reported in patent US11628199B2, “Medicine for combined use in cancer treatment” (SICHUAN JIUZHANG BIOLOGICAL SCIENCE AND TECHNOLOGY CO., LTD, priority 2017, dated 2023).
Where a SMILES comes first, the peptide text is derived from it. [ ]: non-standard residue; d: D form. The star is where a group is joined. dPhe(4-NHCONH2) = NC(=O)Nc1ccc(C[C@@H](N)C(=O)O)cc1; Dihydroorotyl(S) = O=C1C[C@@H](C(=O)*)NC(=O)N1; dPhe(4-Cl) = N[C@H](Cc1ccc(Cl)cc1)C(=O)O; Phe(4-NH2) = Nc1ccc(C[C@H](N)C(=O)O)cc1; d2Nal = N[C@H](Cc1ccc2ccccc2c1)C(=O)O; Lys(iPr) = CC(C)NCCCC[C@H](N)C(=O)O; NMeY = CN[C@@H](Cc1ccc(O)cc1)C(=O)O; d3Pal = N[C@H](Cc1cccnc1)C(=O)O

Legend:
[1] = system: RM-1 mouse prostate cancer cell lines; experiment: In vivo mouse xenograft tumor of RM-1 prostate cancer, chlorogenic acid combined with abarelix or degarelix
Experimental: Test drug: chlorogenic acid, abarelix, degarelix.
Test cell lines: RM-1 mouse prostate cancer cell lines.
(§1) Cells in exponential phase of growth were taken out, digested with trypsin to […], and then cell suspension was prepared by addition of saline.
When the tumor volume in the negative group was about 0.5 cm^3, the experiment was stopped. The mice were sacrificed by cervical dislocation and weighed. The tumors were removed and weighed to calculate the tumor inhibitory rate.

[2] = system: drug-resistant RM-1 mouse prostate cancer cell lines (abarelix-induced); experiment: In vivo mouse xenograft tumor of drug-resistant RM-1 prostate cancer, chlorogenic acid combined with abarelix; settings: for Tumor weight: x ± s; for inhibitory rate of mouse xenograft tumor of drug-resistant RM-1 prostate cancer (in words): groups and doses as in Table 3
Experimental: Test drug: chlorogenic acid, abarelix.
Test cell lines: RM-1 mouse prostate cancer cell lines. RM-1 cell lines were induced by increasing concentration gradient of aberlix and established by clone and screen. Prior to experiment, cell lines were cultured without drug.
Test animals: Kunming mice, ♂, weight 17-24 g.
Drug-resistant cell lines after removal of drug were adjusted to the concentration of 1×10^7/mL with culture medium, and inoculated under the right anterior armpit of mice at 0.1 ml/mouse.
After the mean diameter of tumor reached 100 mm^3, mice were divided into 4 groups, i.e. abarelix group, chlorogenic acid+abarelix group, chlorogenic acid group, and the negative control group, respectively.
Abarelix group: intraperitoneal injection, once every seven days, 15 mg/kg, two doses in total.
chlorogenic acid+abarelix group: chlorogenic acid was intraperitoneally injected, once every day, 10 mg/kg, continuous administration for 5 days; After withdrawal of chlorogenic acid, abarelix was intraperitoneally injected on the next day, once every 7 days, 15 mg/kg, two doses in total.
Chlorogenic acid group: intraperitoneal injection, once every day, 10 mg/kg, continuous administration for 5 days; after that, saline was intraperitoneally injected, once every day, continuing 10 days.
Negative control group: intraperitoneal injection of saline, once every day, continuing 15 days.
After completion of administration, the experiment was stopped, and mice were sacrificed by cervical dislocation and weighed. The tumors were removed and weighed to calculate the tumor inhibitory rate.

[3] = system: EMT-6 mouse breast cancer cell lines; experiment: In vivo mouse xenograft tumor of EMT-6 breast cancer, chlorogenic acid combined with fulvestrant
Experimental: Test drug: chlorogenic acid, fulvestrant.
Test cell lines: EMT-6 mouse breast cancer cell lines.
as §1
Fulvestrant group received drug once by intraperitoneal injection on the next day after inoculation; chlorogenic acid group received drug once every day by intraperitoneal injection from the next day after inoculation, and the drug was successively administrated 15 times; combined medicine group received intraperitoneal injection of fulvestrant once on the next day after inoculation, and intraperitoneal injection of chlorogenic acid once every day from the next day after inoculation; the negative control group received saline by intraperitoneal injection once every day from the next day after inoculation, and saline was continuously given 15 times. When the tumor volume in the negative group was about 0.5 cm^3, the experiment was stopped. The mice were sacrificed by cervical dislocation and weighed. The tumors were removed and weighed to calculate the tumor suppression rate.
(2) If both drugs are combined, Q=E(a+b)/(Ea+Eb−Ea×Eb), in which E(a+b) is the inhibition rate for the combination of two drugs, i.e. the tested combined effect; Ea and Eb is respectively the inhibition rates of two drugs when they are separately used; the denominator (Ea+Eb−Ea×Eb) is the expected combined effect.

[4] = abarelix 15 mg·kg^−1 i.p. once every seven days, two doses
[5] = degarelix 30 mg·kg^−1 s.c. once
[6] = fulvestrant 40 mg·kg^−1 i.p. once
[7] = chlorogenic acid 10 mg·kg^−1 i.p. once daily, 15 times
[8] = chlorogenic acid 20 mg·kg^−1 i.p. once daily, 15 times
[9] = chlorogenic acid 40 mg·kg^−1 i.p. once daily, 15 times

Compound: CC(=O)N[C@H](Cc1ccc2ccccc2c1)C(=O)N[C@H](Cc1ccc(Cl)cc1)C(=O)N[C@H](Cc1cccnc1)C(=O)N[C@@H](CO)C(=O)N(C)[C@@H](Cc1ccc(O)cc1)C(=O)N[C@H](CC(N)=O)C(=O)N[C@@H](CC(C)C)C(=O)N[C@@H](CCCCNC(C)C)C(=O)N1CCC[C@H]1C(=O)N[C@H](C)C(N)=O [Abarelix, abarelix] (Ac-[d2Nal][dPhe(4-Cl)][d3Pal]S[NMeY][dN]L[Lys(iPr)]P[dA]-NH2)
- Tumor inhibitory rate ([1]; abarelix 15 mg·kg^−1 i.p. once): 42.73%
- Tumor weight ([1]; abarelix 15 mg·kg^−1 i.p. once): 0.886 ± 0.521 g
- Tumor inhibitory rate [2, 4]: 4.84%
- Tumor weight [2, 4]: 2.339 ± 0.614 g
- inhibitory rate of mouse xenograft tumor of drug-resistant RM-1 prostate cancer (in words) [2]: weaker, without obvious suppression effect

Compound: CC(=O)N[C@H](Cc1ccc2ccccc2c1)C(=O)N[C@H](Cc1ccc(Cl)cc1)C(=O)N[C@H](Cc1cccnc1)C(=O)N[C@@H](CO)C(=O)N[C@@H](Cc1ccc(NC(=O)[C@@H]2CC(=O)NC(=O)N2)cc1)C(=O)N[C@H](Cc1ccc(NC(N)=O)cc1)C(=O)N[C@@H](CC(C)C)C(=O)N[C@@H](CCCCNC(C)C)C(=O)N1CCC[C@H]1C(=O)N[C@H](C)C(N)=O [Degarelix, degarelix] (Ac-[d2Nal][dPhe(4-Cl)][d3Pal]S[Phe(4-NH2)](Dihydroorotyl(S))[dPhe(4-NHCONH2)]L[Lys(iPr)]P[dA]-NH2)
- Tumor inhibitory rate [1, 5]: 50.61%
- Tumor weight [1, 5]: 0.764 ± 0.218 g

Compound: C[C@]12CC[C@@H]3c4ccc(O)cc4C[C@@H](CCCCCCCCC[S+]([O-])CCCC(F)(F)C(F)(F)F)[C@H]3[C@@H]1CC[C@@H]2O (stereo partly drawn) [Fulvestrant, fulvestrant]
- Tumor inhibitory rate [3, 6]: 43.40%
- Tumor weight [3, 6]: 0.746 ± 0.311 g

Compound: O=C(/C=C/c1ccc(O)c(O)c1)O[C@@H]1C[C@](O)(C(=O)O)C[C@@H](O)[C@H]1O [chlorogenic acid, 3-o-caffeoylquinic acid]
- Tumor inhibitory rate [3, 7]: 31.94%
- Tumor weight ([3]; chlorogenic acid 10 mg·kg^−1 i.p. once daily, 15 times, BALB/C-nu mice): 0.897 ± 0.346 g
- Tumor inhibitory rate [3, 8]: 36.95%
- Tumor weight ([3]; chlorogenic acid 20 mg·kg^−1 i.p. once daily, 15 times, BALB/C-nu mice): 0.831 ± 0.221 g
- Tumor inhibitory rate [3, 9]: 42.03%
- Tumor weight ([3]; chlorogenic acid 40 mg·kg^−1 i.p. once daily, 15 times, BALB/C-nu mice): 0.764 ± 0.539 g
- Tumor inhibitory rate [1, 7]: 24.05%
- Tumor weight ([1]; chlorogenic acid 10 mg·kg^−1 i.p. once daily, 15 times, Kunming mice): 1.175 ± 0.117 g
- Tumor inhibitory rate [1, 8]: 27.86%
- Tumor weight ([1]; chlorogenic acid 20 mg·kg^−1 i.p. once daily, 15 times, Kunming mice): 1.116 ± 0.358 g
- Tumor inhibitory rate [1, 9]: 28.57%
- Tumor weight ([1]; chlorogenic acid 40 mg·kg^−1 i.p. once daily, 15 times, Kunming mice): 1.105 ± 0.641 g
- Tumor inhibitory rate ([2]; chlorogenic acid 10 mg·kg^−1 i.p. once daily for 5 days): 8.41%
- Tumor weight ([2]; chlorogenic acid 10 mg·kg^−1 i.p. once daily for 5 days, then saline 10 days): 2.251 ± 0.581 g
- inhibitory rate of mouse xenograft tumor of drug-resistant RM-1 prostate cancer (in words) [2]: weaker, without obvious suppression effect
